Assay results reported in ChEMBL document CHEMBL4196215 (J Med Chem, 2018).
In brackets after ≈: the same amount, converted by molar mass.

Experiments:
[1] = Thermodynamic solubility of the compound by quantitative nitrogen detection assay; assay type: physicochemical; conditions: read-out: Therm_solubility
[2] = Metabolic stability in CD1 mouse liver microsomes assessed as half life at 1 uM in presence of NADPH by LC-MS/MS analysis; assay type: ADME, microsome
Mus musculus [3] = assay: AUC (0 to 7 hrs) in CD1 mouse at 10 mg/kg, ip measured after 7 hrs by LC-MS/MS analysis; assay type: ADME, organism-based; set-up: dose 10 mg/kg, time < 7 hr, route intraperitoneal; conditions: in vivo
[4] = Plasma concentration in CD1 mouse at 10 mg/kg, ip measured after 4 hrs by LC-MS/MS analysis; assay type: ADME, organism-based
[5] = Plasma concentration in CD1 mouse at 10 mg/kg, ip measured after 2 hrs by LC-MS/MS analysis; assay type: ADME, organism-based
[6] = Plasma concentration in CD1 mouse at 10 mg/kg, ip measured after 7 hrs by LC-MS/MS analysis; assay type: ADME, organism-based
[7] = Plasma concentration in CD1 mouse at 10 mg/kg, ip measured after 0.5 hrs by LC-MS/MS analysis; assay type: ADME, organism-based
Mus musculus [8] = assay: Time at which plasma concentration stays above invitro effective concentration for inhibition of ALDH1A3 in human PEO1 cells in CD1 mouse at 10 mg/kg, ip by LC-MS/MS analysis; assay type: organism-based; conditions: in vivo
Mus musculus [9] = assay: Time at which plasma concentration stays above invitro effective concentration for inhibition of ALDH1A3 in human OVCAR5 cells in CD1 mouse at 10 mg/kg, ip by LC-MS/MS analysis; assay type: organism-based; conditions: in vivo

solubility thermodynamic [1]	t1/2 [2]	Compound	also measured
8 µM (≈ 3.27 µg/mL)	–	O=c1c2cnn(C3COC3)c2nc(SCc2cccc(F)c2)n1-c1ccccc1	–
5 µM (≈ 2.04 µg/mL)	–	O=c1c2cn(C3COC3)nc2nc(SCc2cccc(F)c2)n1-c1ccccc1	AUC (Mus musculus [3]): 27.8 µM·h; concentration at 4 h [4]: 3000 nM; concentration at 2 h [5]: 5200 nM; concentration at 7 h [6]: 900 nM; concentration at 0.5 h [7]: 7600 nM
53 µM (≈ 22.4 µg/mL)	27 min	O=c1c2cn(CC3COC3)nc2nc(SCc2cccc(F)c2)n1-c1ccccc1	AUC (Mus musculus [3]): 11 µM·h; Time (Mus musculus [8]): 4 h; concentration at 4 h [4]: 600 nM; concentration at 2 h [5]: 2600 nM; concentration at 7 h [6]: 100 nM; Time (Mus musculus [9]): 4 h; concentration at 0.5 h [7]: 5600 nM
< 0.7 µM	–	Cn1ncc2c(=O)n(-c3ccccc3)c(SCc3cccc(F)c3)nc21	–
69 µM (≈ 25.3 µg/mL)	13 min	Cn1cc2c(=O)n(-c3ccccc3)c(SCc3cccc(F)c3)nc2n1	–

Second part, the compound before the results:

Compound	solubility thermodynamic [1]	t1/2 [2]	also measured
Cn1ncc2c(=O)n(CCc3ccccc3)c(SCc3cccc(F)c3)nc21	3 µM (≈ 1.18 µg/mL)	–	–
Cn1ncc2c(=O)n(Cc3ccccc3)c(SCc3cccc(F)c3)nc21	5 µM (≈ 1.9 µg/mL)	–	–
Cn1ncc2c(=O)n(-c3cccc(Cl)c3)c(SCc3cccc(F)c3)nc21	55 µM (≈ 22 µg/mL)	–	–
Cc1ccccc1-n1c(SCc2cccc(F)c2)nc2[nH]ncc2c1=O	2 µM (≈ 0.733 µg/mL)	9 min	–
Cc1ccccc1-n1c(SCc2cccc(F)c2)nc2c(cnn2C)c1=O	38 µM (≈ 14.5 µg/mL)	–	–
